From ChEMBL document CHEMBL4177565, “Arylamidonaphtalene sulfonate compounds as a novel class of heparanase inhibitors” (Bioorg Med Chem Lett, 2017)
Active and inactive are the calls of the source. The rule behind the calls is not given here.

Assays:
HT-1080 [1] = test: Growth inhibition of human HT1080 cells at 2.5 uM after 72 hrs by SRB assay relative to control; assay type: functional; settings: HT-1080, 72 h, read-out: GI
U-87 MG = test: Growth inhibition of human U87MG cells at 2.5 uM after 72 hrs by SRB assay relative to control; assay type: functional, U-87MG ATCC; settings: read-out: GI
U2OS = test: Growth inhibition of human U2OS cells at 2.5 uM after 72 hrs by SRB assay relative to control; assay type: functional; settings: read-out: GI
Heparanase = target: T1, Heparanase (Mus musculus, UniProt Q6YGZ1); test: Inhibition of mouse B16-BL6 cells derived heparanase using [3H]HS as substrate after 6 hrs by size exclusion chromatography based liquid scintillation counting method
T1 sequence (Q6YGZ1 whole entry): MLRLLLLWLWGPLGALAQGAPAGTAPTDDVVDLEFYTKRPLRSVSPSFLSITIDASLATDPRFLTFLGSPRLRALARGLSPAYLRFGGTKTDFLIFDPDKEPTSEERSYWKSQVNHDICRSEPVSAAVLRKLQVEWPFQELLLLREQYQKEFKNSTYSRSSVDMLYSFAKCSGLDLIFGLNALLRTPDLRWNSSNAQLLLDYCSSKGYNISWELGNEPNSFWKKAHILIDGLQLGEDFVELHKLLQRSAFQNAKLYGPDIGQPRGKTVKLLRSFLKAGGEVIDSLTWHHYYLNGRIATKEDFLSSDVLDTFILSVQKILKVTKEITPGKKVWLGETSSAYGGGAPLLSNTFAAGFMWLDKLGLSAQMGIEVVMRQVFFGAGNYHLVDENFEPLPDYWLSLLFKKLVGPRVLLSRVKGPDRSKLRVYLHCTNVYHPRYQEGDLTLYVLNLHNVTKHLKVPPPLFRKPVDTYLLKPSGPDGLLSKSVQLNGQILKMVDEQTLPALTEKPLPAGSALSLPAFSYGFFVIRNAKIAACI

HT-1080 [2] = test: Effect on growth factor mRNA expression in human HT1080 cells assessed as FGF1 mRNA level at 2.5 uM after 24 hrs by qPCR method (reference value: 100%); assay type: functional
HT-1080 [3] = test: Effect on growth factor mRNA expression in human HT1080 cells assessed as FGF2 mRNA level at 2.5 uM after 24 hrs by qPCR method (reference value: 100%); assay type: functional
HT-1080 [4] = test: Effect on growth factor mRNA expression in human HT1080 cells assessed as VEGF mRNA level at 2.5 uM after 24 hrs by qPCR method (reference value: 100%); assay type: functional
HT-1080 [5] = test: Effect on MMP9 mRNA expression in human HT1080 cells assessed as MMP9 mRNA level at 2.5 uM after 24 hrs by qPCR method (reference value: 100%); assay type: functional
HT-1080 [6] = test: Effect on HPSE1 mRNA expression in human HT1080 cells assessed as HPSE1 mRNA level at 2.5 uM after 24 hrs by qPCR method (reference value: 100%); assay type: functional
HT-1080 [7] = test: Anti-invasive activity against human HT1080 cells at 2.5 uM incubated for 24 hrs measured for 24 hrs by crystal violet staining based inverted microscopic method relative to control; assay type: functional
HT-1080 [8] = settings: Homo sapiens, 2.5 uM
Description: Inhibition of cell adhesion in human HT1080 cells at 2.5 uM incubated for 18 to 20 hrs by crystal violet staining based assay

| SMILES | inhibition of growth at 2.5 µM (HT-1080 [1]) [%] | inhibition of growth at 2.5 µM (U-87 MG) [%] | inhibition of growth at 2.5 µM (U2OS) [%] | also measured |
| --- | --- | --- | --- | --- |
| Cn1cc(NC(=O)c2cccc(NC(=O)Nc3cccc(C(=O)Nc4cc(C(=O)Nc5ccc6c(S(=O)(=O)O)cccc6c5S(=O)(=O)O)n(C)c4)c3)c2)cc1C(=O)Nc1ccc2c(S(=O)(=O)O)cccc2c1S(=O)(=O)O | < 50 | < 50 | < 50 | – |
| Cn1cc(NC(=O)c2cc(NC(=O)Nc3cc(C(=O)Nc4cc(C(=O)Nc5ccc6c(S(=O)(=O)O)cccc6c5S(=O)(=O)O)n(C)c4)cc(C(F)(F)F)c3)cc(C(F)(F)F)c2)cc1C(=O)Nc1ccc2c(S(=O)(=O)O)cccc2c1S(=O)(=O)O | < 50 | < 50 | < 50 | – |
| Cc1ccc(C(=O)Nc2ccc(S(=O)(=O)O)c3cc(S(=O)(=O)O)cc(S(=O)(=O)O)c23)cc1NC(=O)c1cccc(NC(=O)Nc2cccc(C(=O)Nc3cc(C(=O)Nc4ccc(S(=O)(=O)O)c5cc(S(=O)(=O)O)cc(S(=O)(=O)O)c45)ccc3C)c2)c1 [SURAMIN] | – | – | – | Ki (Heparanase): 48 µM |
| Cn1cc(NC(=O)Nc2cc(C(=O)Nc3cc(C(=O)Nc4ccc5c(S(=O)(=O)[O-])cccc5c4S(=O)(=O)[O-])n(C)c3)n(C)c2)cc1C(=O)Nc1cc(C(=O)Nc2ccc3c(S(=O)(=O)[O-])cccc3c2S(=O)(=O)[O-])n(C)c1.[Na+].[Na+].[Na+].[Na+] | – | – | – | Activity (HT-1080 [2]): 44%; Activity (HT-1080 [3]): 86%; Activity (HT-1080 [4]): 100%; Activity (HT-1080 [5]): 100%; Activity (HT-1080 [6]): 1% |
| O=C(Nc1cccc(C(=O)Nc2cc(C(=O)Nc3ccc4c(S(=O)(=O)O)cccc4c3S(=O)(=O)O)n(C3CC3)c2)c1)Nc1cccc(C(=O)Nc2cc(C(=O)Nc3ccc4c(S(=O)(=O)O)cccc4c3S(=O)(=O)O)n(C3CC3)c2)c1 | < 50 | < 50 | < 50 | – |
| Cn1cc(NC(=O)Nc2cc(C(=O)Nc3cccc(C(=O)Nc4ccc5c(S(=O)(=O)[O-])cccc5c4S(=O)(=O)[O-])c3)n(C)c2)cc1C(=O)Nc1cccc(C(=O)Nc2ccc3c(S(=O)(=O)[O-])cccc3c2S(=O)(=O)[O-])c1.[Na+].[Na+].[Na+].[Na+] | < 50 | < 50 | < 50 | Activity (HT-1080 [7]): >90%; Activity (HT-1080 [2]): 87%; Activity (HT-1080 [3]): 98%; Activity (HT-1080 [4]): 85%; Activity (HT-1080 [5]): 80%; Activity (HT-1080 [6]): 4%; inhibition (HT-1080 [8]): Active |
| Cn1cc(NC(=O)c2ccc(F)c(NC(=O)Nc3cc(C(=O)Nc4cc(C(=O)Nc5ccc6c(S(=O)(=O)O)cccc6c5S(=O)(=O)O)n(C)c4)ccc3F)c2)cc1C(=O)Nc1ccc2c(S(=O)(=O)O)cccc2c1S(=O)(=O)O | < 50 | < 50 | < 50 | – |
| Cc1ccc(C(=O)Nc2ccc3c(S(=O)(=O)O)cccc3c2S(=O)(=O)O)cc1NC(=O)c1cc(NC(=O)Nc2cc(C(=O)Nc3cc(C(=O)Nc4ccc5c(S(=O)(=O)O)cccc5c4S(=O)(=O)O)ccc3C)n(C)c2)cn1C | < 50 | < 50 | < 50 | – |
| Cc1c(NC(=O)c2cccc(NC(=O)Nc3cccc(C(=O)Nc4cc(C(=O)Nc5ccc6c(S(=O)(=O)O)cccc6c5S(=O)(=O)O)n(C)c4C)c3)c2)cc(C(=O)Nc2ccc3c(S(=O)(=O)O)cccc3c2S(=O)(=O)O)n1C | < 50 | < 50 | < 50 | – |
